Experimental data reported in PMC4648050, “Discovery of Inhibitors of Trypanosoma brucei by Phenotypic Screening of a Focused Protein Kinase Library” (Chemmedchem, 2015).
Values after ≈ are worked out from the molar mass of the structure shown.

Key:
IGF-1R = IGF-1R (Homo sapiens, UniProt P08069); assay: Kinase panel: IGF-1R; type: biochemical, human/mammalian; settings: compound at 10 μM, read-out: % of activity respect of the control
Protocol: (§1) The DDU kinase-focused compound set contains lead-like scaffolds that are designed to target protein kinases; they have kinase hinge binding motifs. Four of the 1H-imidazopyrazinones were screened against a human/mammalian kinase panel at the University of Dundee (http://www.kinase-screen.mrc.ac.uk) at a concentration of 10 μM. At the time of testing the panel contained 79 mammalian kinases selected to provide a broad coverage of the mammalian kinome (∼500 kinases in the human genome).[3] None of the compounds were active against any of the kinases at 10 μM.

CSK = CSK (Homo sapiens, UniProt P41240); assay: Kinase panel: CSK; type: biochemical, human/mammalian; settings: compound at 10 μM, read-out: % of activity respect of the control
Protocol: as §1

FGF-R1 = FGF-R1 (Homo sapiens, UniProt P11362); assay: Kinase panel: FGF-R1; type: biochemical, human/mammalian; settings: compound at 10 μM, read-out: % of activity respect of the control
Protocol: as §1

[1] = test system: MRC5 cells (human lung fibroblasts); assay: MRC5 proliferation assay; type: cell-based; settings: geometric mean of two or more determinations
Protocol: Trypanosome and MRC5 proliferation assay: Measurement of inhibition of the proliferation of MRC5 cells (human lung fibroblasts) and T. brucei bloodstream-stage cells was performed using a modification of a cell viability assay previously described.[35, 36] Compounds ([…] to 0.5 nM) were incubated with 2×10^3 cells per well in 0.2 mL of the appropriate culture medium (MEM with 10 % foetal bovine serum for MRC5 cells) in clear 96-well plates. Plates were incubated at 37 °C in the presence of 5 % CO2 for 69 h. Resazurin was then added to a final concentration of 50 μM, and plates were incubated as above for a further 4 h before being read on a BioTek Flx800 fluorescence plate reader.

NEK6 = NEK6 (Homo sapiens, UniProt Q9HC98); assay: Kinase panel: NEK6; type: biochemical, human/mammalian; settings: compound at 10 μM, read-out: % of activity respect of the control
Protocol: as §1

PKBb = PKBb (Homo sapiens, UniProt P31751); assay: Kinase panel: PKBb; type: biochemical, human/mammalian; settings: compound at 10 μM, read-out: % of activity respect of the control
Protocol: as §1

[2] = Kinetic aqueous solubility (laser nephelometry); type: physicochemical; settings: Milli-Q water with 2.5% DMSO, kinetic from dmso stock, range 250–12 μM, read-out: Aq. Sol. (aqueous kinetic solubility)
Protocol: Solubility experiments: The kinetic aqueous solubility of the test compounds was measured using laser nephelometry. Compounds were subject to serial dilution from 10 mM to 0.5 mM in DMSO. An aliquot was then mixed with Milli-Q H2O to obtain an aqueous dilution plate with a final concentration range of 250–12 μM, with a final DMSO concentration of 2.5 %. Triplicate aliquots were transferred to a flat-bottomed polystyrene plate which was immediately read on the NEPHELOstar (BMG Lab Technologies). The amount of laser scatter caused by insoluble particulates (relative nephelometry units, RNU) was plotted against compound concentration using a segmental regression fit, with the point of inflection being quoted as the compounds′ aqueous solubility (in μM).

PRAK = target: T1, PRAK (Homo sapiens, UniProt Q8IW41); assay: Kinase panel: PRAK; type: biochemical, human/mammalian; settings: compound at 10 μM, read-out: % of activity respect of the control
T1 sequence (Q8IW41 1-473): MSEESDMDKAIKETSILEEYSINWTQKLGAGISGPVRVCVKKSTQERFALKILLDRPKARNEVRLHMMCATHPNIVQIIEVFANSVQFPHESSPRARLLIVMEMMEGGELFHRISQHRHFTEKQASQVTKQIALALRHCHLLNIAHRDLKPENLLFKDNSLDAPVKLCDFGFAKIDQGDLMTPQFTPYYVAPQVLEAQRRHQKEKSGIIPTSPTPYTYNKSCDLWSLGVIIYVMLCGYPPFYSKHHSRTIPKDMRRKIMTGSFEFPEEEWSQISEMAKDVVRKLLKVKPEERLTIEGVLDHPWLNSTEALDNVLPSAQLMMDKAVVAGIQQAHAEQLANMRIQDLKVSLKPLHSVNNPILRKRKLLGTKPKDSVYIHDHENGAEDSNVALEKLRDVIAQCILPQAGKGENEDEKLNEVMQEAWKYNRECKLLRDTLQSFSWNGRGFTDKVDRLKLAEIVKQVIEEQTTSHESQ
Protocol: as §1

DYRK2 = target: T2, DYRK2 (Homo sapiens, UniProt Q92630); assay: Kinase panel: DYRK2; type: biochemical, human/mammalian; settings: compound at 10 μM, read-out: % of activity respect of the control
T2 sequence (Q92630 1-601): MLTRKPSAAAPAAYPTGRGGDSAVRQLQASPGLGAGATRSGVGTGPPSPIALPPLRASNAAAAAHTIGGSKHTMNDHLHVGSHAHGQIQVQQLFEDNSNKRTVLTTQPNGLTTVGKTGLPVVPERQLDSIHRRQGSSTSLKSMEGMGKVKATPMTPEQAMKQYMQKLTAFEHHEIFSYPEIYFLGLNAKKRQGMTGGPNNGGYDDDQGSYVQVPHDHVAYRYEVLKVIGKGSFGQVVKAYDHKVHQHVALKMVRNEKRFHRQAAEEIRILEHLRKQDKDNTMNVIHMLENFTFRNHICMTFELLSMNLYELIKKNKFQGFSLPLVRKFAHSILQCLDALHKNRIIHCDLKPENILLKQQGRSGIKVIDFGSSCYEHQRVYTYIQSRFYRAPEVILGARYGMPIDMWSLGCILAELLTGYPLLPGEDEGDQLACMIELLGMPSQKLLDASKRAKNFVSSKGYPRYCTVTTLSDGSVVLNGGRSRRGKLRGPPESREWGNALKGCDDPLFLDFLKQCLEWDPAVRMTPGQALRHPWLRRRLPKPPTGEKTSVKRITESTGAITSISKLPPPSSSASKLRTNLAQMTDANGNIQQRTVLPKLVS
Protocol: as §1

ERK1 = ERK1 (Homo sapiens, UniProt P27361); assay: Kinase panel: ERK1; type: biochemical, human/mammalian; settings: compound at 10 μM, read-out: % of activity respect of the control
Protocol: as §1

[3] = Intrinsic clearance in mouse liver microsomes; type: in vitro ADME; settings: mouse hepatic microsomes, 0.5 μM compound
Protocol: Intrinsic clearance experiments: Test compound (0.5 μM) was incubated with female CD1 mouse liver microsomes (Xenotech LLC; 0.5 mg mL^−1 50 mM potassium phosphate buffer, pH 7.4), and the reaction started with the addition of excess NADPH (8 mg mL^−1 50 mM potassium phosphate buffer, pH 7.4). Immediately, at t0, then at 3, 6, 9, 15, and 30 min an aliquot (50 μL) of the incubation mixture was removed and mixed with MeCN (100 μL) to stop the reaction. Internal standard was added to all samples, the samples were centrifuged to sediment precipitated protein, and the plates were then sealed prior to UPLC–MS/MS analysis using a Quattro Premier XE instrument (Waters Corp., USA). XLfit (IDBS, UK) was used to calculate the exponential decay and consequently the rate constant (k) from the ratio of peak area of test compound to internal standard at each time point. The rate of intrinsic clearance [CLint, mL min^−1 (g liver)^−1] of each test compound was then calculated with Equation (3): […]
in which V [mL (mg protein)^−1] is the incubation volume per mg protein added, and microsomal protein yield is taken as 52.5 mg protein per gram of liver. Verapamil (0.5 μM) was used as a positive control to confirm acceptable assay performance.

Sequence of CSK (P41240 whole entry): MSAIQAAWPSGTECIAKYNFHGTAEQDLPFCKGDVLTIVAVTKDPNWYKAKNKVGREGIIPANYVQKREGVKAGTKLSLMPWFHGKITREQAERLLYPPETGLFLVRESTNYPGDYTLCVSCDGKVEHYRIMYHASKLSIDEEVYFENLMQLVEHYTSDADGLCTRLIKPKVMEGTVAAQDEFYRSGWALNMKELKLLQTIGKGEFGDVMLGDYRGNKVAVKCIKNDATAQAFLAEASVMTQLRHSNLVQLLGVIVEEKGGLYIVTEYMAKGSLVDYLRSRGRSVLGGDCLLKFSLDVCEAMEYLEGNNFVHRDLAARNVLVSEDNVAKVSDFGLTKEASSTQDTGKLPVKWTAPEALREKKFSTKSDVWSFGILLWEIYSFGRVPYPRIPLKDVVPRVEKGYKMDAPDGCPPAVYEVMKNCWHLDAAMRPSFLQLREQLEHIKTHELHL
Sequence of IGF-1R (P08069 31-1367): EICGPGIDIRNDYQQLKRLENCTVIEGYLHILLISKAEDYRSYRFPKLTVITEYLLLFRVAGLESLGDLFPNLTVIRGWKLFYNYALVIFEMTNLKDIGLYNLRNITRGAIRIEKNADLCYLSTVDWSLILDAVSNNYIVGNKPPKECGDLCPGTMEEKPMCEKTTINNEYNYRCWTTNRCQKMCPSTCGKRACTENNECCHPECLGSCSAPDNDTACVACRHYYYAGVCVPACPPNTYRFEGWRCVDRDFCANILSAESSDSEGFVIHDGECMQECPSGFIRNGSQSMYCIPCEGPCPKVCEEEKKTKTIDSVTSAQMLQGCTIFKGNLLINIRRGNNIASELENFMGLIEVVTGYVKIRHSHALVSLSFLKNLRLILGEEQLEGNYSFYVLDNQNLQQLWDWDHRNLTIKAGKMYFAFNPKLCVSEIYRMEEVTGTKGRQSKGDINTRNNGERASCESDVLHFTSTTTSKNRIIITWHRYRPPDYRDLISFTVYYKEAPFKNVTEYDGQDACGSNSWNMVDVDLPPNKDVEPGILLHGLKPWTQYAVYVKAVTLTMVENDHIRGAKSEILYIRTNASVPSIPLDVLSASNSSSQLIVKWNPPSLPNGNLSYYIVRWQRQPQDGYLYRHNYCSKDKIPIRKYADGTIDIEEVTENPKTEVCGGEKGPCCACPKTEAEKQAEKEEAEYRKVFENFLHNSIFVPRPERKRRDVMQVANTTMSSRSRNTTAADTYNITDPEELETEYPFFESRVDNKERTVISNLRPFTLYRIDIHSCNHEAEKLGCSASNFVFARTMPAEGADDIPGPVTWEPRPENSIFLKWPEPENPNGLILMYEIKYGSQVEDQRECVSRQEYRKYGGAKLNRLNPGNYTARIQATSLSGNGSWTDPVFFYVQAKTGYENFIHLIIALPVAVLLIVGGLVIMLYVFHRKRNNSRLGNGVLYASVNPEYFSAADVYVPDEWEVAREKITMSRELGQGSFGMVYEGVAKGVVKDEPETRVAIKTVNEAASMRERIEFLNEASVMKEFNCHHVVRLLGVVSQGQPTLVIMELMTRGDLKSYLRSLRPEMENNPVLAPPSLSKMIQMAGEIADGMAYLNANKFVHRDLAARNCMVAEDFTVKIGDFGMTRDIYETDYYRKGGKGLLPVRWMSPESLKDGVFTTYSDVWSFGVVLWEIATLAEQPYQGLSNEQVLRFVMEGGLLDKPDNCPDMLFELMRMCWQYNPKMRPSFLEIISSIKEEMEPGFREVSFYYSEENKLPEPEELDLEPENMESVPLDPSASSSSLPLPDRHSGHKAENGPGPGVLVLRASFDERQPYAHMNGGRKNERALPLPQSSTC
Sequence of NEK6 (Q9HC98 whole entry): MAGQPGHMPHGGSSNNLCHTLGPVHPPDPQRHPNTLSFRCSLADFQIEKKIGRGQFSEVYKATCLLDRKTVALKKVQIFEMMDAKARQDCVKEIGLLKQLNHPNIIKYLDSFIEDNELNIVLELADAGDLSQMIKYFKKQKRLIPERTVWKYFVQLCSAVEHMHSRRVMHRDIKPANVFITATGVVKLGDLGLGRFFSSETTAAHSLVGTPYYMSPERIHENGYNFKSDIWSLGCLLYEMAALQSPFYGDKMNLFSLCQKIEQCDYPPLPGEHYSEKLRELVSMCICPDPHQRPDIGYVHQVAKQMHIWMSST
Sequence of PKBb (P31751 whole entry): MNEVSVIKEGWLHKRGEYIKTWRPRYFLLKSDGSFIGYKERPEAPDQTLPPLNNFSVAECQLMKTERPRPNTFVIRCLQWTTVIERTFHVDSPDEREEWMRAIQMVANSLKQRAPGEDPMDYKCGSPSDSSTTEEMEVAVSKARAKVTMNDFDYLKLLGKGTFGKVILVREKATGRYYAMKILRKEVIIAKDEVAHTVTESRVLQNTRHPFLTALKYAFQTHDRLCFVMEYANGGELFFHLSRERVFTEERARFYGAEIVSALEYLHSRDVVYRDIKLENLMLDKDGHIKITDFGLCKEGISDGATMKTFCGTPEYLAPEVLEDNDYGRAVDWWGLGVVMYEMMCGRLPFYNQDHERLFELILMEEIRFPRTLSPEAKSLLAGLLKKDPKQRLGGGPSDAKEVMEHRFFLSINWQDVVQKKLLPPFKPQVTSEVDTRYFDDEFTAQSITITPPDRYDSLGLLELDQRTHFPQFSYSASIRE
Sequence of FGF-R1 (P11362 22-822): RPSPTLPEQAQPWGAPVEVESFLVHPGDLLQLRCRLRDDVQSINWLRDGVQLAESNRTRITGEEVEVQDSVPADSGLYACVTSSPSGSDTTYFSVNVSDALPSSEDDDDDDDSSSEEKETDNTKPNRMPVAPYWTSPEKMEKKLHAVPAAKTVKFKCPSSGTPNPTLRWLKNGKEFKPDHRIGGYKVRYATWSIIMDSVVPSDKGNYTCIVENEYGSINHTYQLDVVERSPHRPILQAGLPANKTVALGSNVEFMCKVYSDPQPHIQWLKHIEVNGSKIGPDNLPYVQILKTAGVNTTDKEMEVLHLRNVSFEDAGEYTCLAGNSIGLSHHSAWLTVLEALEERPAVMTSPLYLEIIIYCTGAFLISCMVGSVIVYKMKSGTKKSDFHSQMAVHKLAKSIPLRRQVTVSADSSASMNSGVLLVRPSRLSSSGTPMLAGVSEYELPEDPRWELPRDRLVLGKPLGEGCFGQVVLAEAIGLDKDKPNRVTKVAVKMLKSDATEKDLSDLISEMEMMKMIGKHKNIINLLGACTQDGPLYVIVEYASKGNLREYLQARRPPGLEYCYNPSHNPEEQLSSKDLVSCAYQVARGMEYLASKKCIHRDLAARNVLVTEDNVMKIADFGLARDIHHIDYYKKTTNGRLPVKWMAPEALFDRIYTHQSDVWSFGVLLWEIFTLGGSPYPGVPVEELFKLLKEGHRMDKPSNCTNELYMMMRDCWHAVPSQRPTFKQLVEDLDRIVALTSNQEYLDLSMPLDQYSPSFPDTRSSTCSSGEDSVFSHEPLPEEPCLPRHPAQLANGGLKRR
Sequence of ERK1 (P27361 whole entry): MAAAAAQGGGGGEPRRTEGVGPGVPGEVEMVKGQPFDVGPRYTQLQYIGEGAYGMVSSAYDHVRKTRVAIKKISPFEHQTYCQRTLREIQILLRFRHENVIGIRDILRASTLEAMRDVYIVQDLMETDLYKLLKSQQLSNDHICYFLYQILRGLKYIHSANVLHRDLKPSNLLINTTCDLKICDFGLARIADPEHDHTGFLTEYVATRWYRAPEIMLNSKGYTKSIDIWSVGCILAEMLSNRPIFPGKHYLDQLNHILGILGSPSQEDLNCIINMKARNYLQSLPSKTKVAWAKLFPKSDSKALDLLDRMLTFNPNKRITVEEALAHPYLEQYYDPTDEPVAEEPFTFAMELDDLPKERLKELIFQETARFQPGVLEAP

Row | SMILES | remaining activity at 10 µM (IGF-1R) | remaining activity at 10 µM (CSK) | remaining activity at 10 µM (FGF-R1) | EC50 [1] | remaining activity at 10 µM (NEK6) | remaining activity at 10 µM (PKBb) | solubility kinetic [2] | remaining activity at 10 µM (PRAK) | remaining activity at 10 µM (DYRK2) | remaining activity at 10 µM (ERK1) | CLint [3]
1 | C[C@H](c1ccccc1)n1c(=O)[nH]c2ncc(-c3ccccc3)nc21 [Compound 14, (R)-6-Phenyl-1-(1-phenylethyl)-1H-imidazo[4,5-b]pyrazin-2(3H)-one] | 112% | 77% | 63% | 26 µM | 80% | 100% | < 12 µM | 98% | 89% | 105% | 
2 | O=c1[nH]c2ncc(-c3ccccc3CO)nc2n1C1CCCCC1 [Compound 28] |  |  |  | > 50 µM |  |  | > 250 µM |  |  |  | 2.4 mL/min/g
3 | CC(c1ccccc1)n1c(=O)[nH]c2ncc(-c3ccc(F)cc3)nc21 (centres unmarked) [Compound 1] | 122% | 100% | 95% | > 50 µM | 89% | 117% | < 12 µM | 103% | 100% | 153% | < 0.5 mL/min/g
4 | O=c1[nH]c2ncc(-c3ccc(F)cc3)nc2n1CC1CC1 [Compound 10] | 85% | 93% | 88% | > 50 µM | 86% | 120% |  | 99% | 94% | 112% | 
5 | O=c1[nH]c2ncc(-c3ccc(F)cc3)nc2n1C1CCCCC1 [Compound 12, 1-Cyclohexyl-6-(4-fluorophenyl)-1H-imidazo[4,5-b]pyrazin-2(3H)-one] | 100% | 90% | 96% | > 50 µM | 94% | 106% | 55 µM (≈ 17.2 µg/mL) | 99% | 99% | 115% | 0.7 mL/min/g
